Key:
Italian ryegrass = assay: Test C pre-/postemergence test; type: in vivo, Lolium multiflorum; conditions: for Plant response rating, Ryegrass, Italian: 31 g ai/ha, scale 0 to 100 (0 no effect, 100 complete control)
Method in brief: (§1)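 Test chemicals were formulated with surfactant in a non-phytotoxic solvent and sprayed both on freshly planted seeds (preemergence) and on 1- to 4-leaf plants of 2–18 cm (postemergence). Flooded-paddy pots received compound directly into 3 cm of standing water, maintained for the test.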

purple nutsedge = assay: Test F preemergence test; type: in vivo, Cyperus rotundus; conditions: scale 0 to 100
Method in brief: (§2)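 Compound in a non-phytotoxic solvent blend with surfactant is applied preemergence to planted seeds or postemergence to sugarcane plants. Plants and controls stay in the greenhouse 14 to 21 days before visual comparison.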

broadleaf signalgrass = assay: Test F preemergence test; type: in vivo, Brachiaria platyphylla; conditions: scale 0 to 100; for Signalgrass plant response rating: 125 g ai/ha
Method in brief: as §2

dallisgrass = assay: Test F preemergence test; type: in vivo, Paspalum dilatatum; conditions: scale 0 to 100
Method in brief: as §2

green foxtail = assay: Test C pre-/postemergence test; type: in vivo, Setaria viridis; conditions: for Plant response rating, Foxtail, Green: 31 g ai/ha, scale 0 to 100 (0 no effect, 100 complete control)
Method in brief: as §1

itchgrass = assay: Test F preemergence test; type: in vivo, Rottboellia cochinchinensis; conditions: scale 0 to 100
Method in brief: as §2

common groundsel = assay: Test F preemergence test; type: in vivo, Senecio vulgaris; conditions: scale 0 to 100
Method in brief: as §2

barnyardgrass = assay: Test A pre-/postemergence greenhouse test; type: in vivo, Echinochloa crus-galli; conditions: for Barnyardgrass plant response rating: 0 to 100 scale; for Plant response rating, Barnyardgrass: 0 to 100 scale where 0 is no effect and 100 is complete control
Method in brief: (§3)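 Herbicidal effect is a visual injury score given about ten days post-treatment by comparison with untreated controls. Preemergence plots received a directed spray onto sown loam–sand soil; postemergence plants, at the one- to two-leaf stage and 2–10 cm tall, were sprayed at the same time.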

Virginia dayflower = assay: Test F preemergence test; type: in vivo, Commelina virginica; conditions: scale 0 to 100
Method in brief: as §2

kochia = assay: Test F preemergence test; type: in vivo, Kochia scoparia; conditions: scale 0 to 100
Method in brief: as §2

velvetleaf = assay: Test A pre-/postemergence greenhouse test; type: in vivo, Abutilon theophrasti; conditions: for Velvetleaf plant response rating: 0 to 100 scale; for Plant response rating, Velvetleaf: 0 to 100 scale where 0 is no effect and 100 is complete control
Method in brief: as §3

goosegrass = assay: Test F preemergence test; type: in vivo, Eleusine indica; conditions: scale 0 to 100
Method in brief: as §2

johnsongrass = assay: Test F preemergence test; type: in vivo, Sorghum halepense; conditions: scale 0 to 100
Method in brief: as §2

[1] = 62 g ai/ha, Preemergence, scale 0 to 100
[2] = Postemergence, 125 g ai/ha, 0 is no effect, 100 is complete control
[3] = Postemergence, 500 g ai/ha, 0 is no effect, 100 is complete control
[4] = Preemergence, 125 g ai/ha, 0 no effect, 100 complete control
[5] = 125 g ai/ha, preemergence, scale 0 (no effect) to 100 (complete control)
[6] = preemergence, 250 g ai/ha, scale 0 (no effect) to 100 (complete control)

SMILES: Cc1cc[n+]([O-])c(S(=O)(=O)Cc2c(C(F)(F)F)nn(C)c2OCC(F)(F)F)c1 [Compound 31]
- Ryegrass, Italian plant response rating (Italian ryegrass; [1]): 60
- Plant response rating, Ryegrass, Italian (Italian ryegrass; Preemergence): 40
- Plant response rating, Purple Nutsedge (purple nutsedge; 16 g ai/ha, preemergence): 40
- Purple Nutsedge plant response rating (purple nutsedge; 62 g ai/ha, Preemergence): 70
- Purple Nutsedge plant response rating (purple nutsedge; 125 g ai/ha, preemergence): 100
- Plant response rating, Purple Nutsedge (purple nutsedge; Preemergence, 31 g ai/ha): 50
- Plant response rating, Signalgrass (broadleaf signalgrass; 16 g ai/ha, preemergence): 35
- Signalgrass plant response rating (broadleaf signalgrass; preemergence): 98
- Plant response rating, Signalgrass (broadleaf signalgrass; Preemergence, 62 g ai/ha): 90
- Plant response rating, Signalgrass (broadleaf signalgrass; Preemergence, 31 g ai/ha): 60
- Plant response rating, Dallisgrass (dallisgrass; 16 g ai/ha, preemergence): 35
- Dallisgrass plant response rating (dallisgrass; 62 g ai/ha, Preemergence): 95
- Dallisgrass plant response rating (dallisgrass; 125 g ai/ha, preemergence): 100
- Plant response rating, Dallisgrass (dallisgrass; Preemergence, 31 g ai/ha): 60
- Foxtail, Green plant response rating (green foxtail; [1]): 100
- Plant response rating, Foxtail, Green (green foxtail; Preemergence): 100
- Plant response rating, Itchgrass (itchgrass; 16 g ai/ha, preemergence): 10
- Itchgrass plant response rating (itchgrass; 62 g ai/ha, Preemergence): 60
- Itchgrass plant response rating (itchgrass; 125 g ai/ha, preemergence): 80
- Plant response rating, Itchgrass (itchgrass; Preemergence, 31 g ai/ha): 25
- Groundsel plant response rating (common groundsel; 125 g ai/ha, preemergence): 100
- Barnyardgrass plant response rating (barnyardgrass; [2]): 70
- Barnyardgrass plant response rating (barnyardgrass; [3]): 90
- Barnyardgrass plant response rating (barnyardgrass; [4]): 100
- Plant response rating, Barnyardgrass (barnyardgrass; Preemergence, 500 g ai/ha): 100
- Plant response rating, Dayflower (Virginia dayflower; 16 g ai/ha, preemergence): 30
- Dayflower plant response rating (Virginia dayflower; 62 g ai/ha, Preemergence): 100
- Dayflower plant response rating (Virginia dayflower; 125 g ai/ha, preemergence): 100
- Plant response rating, Dayflower (Virginia dayflower; Preemergence, 31 g ai/ha): 65
- Plant response rating, Kochia (kochia; 16 g ai/ha, preemergence): 0
- Kochia plant response rating (kochia; 62 g ai/ha, Preemergence): 65
- Kochia plant response rating (kochia; 125 g ai/ha, preemergence): 100
- Plant response rating, Kochia (kochia; Preemergence, 31 g ai/ha): 0
- Velvetleaf plant response rating (velvetleaf; [2]): 50
- Velvetleaf plant response rating (velvetleaf; [3]): 60
- Velvetleaf plant response rating (velvetleaf; [4]): 30
- Plant response rating, Velvetleaf (velvetleaf; Preemergence, 500 g ai/ha): 90
- Plant response rating, Goosegrass (goosegrass; 16 g ai/ha, preemergence): 50
- Goosegrass plant response rating (goosegrass; 62 g ai/ha, Preemergence): 100
- Goosegrass plant response rating (goosegrass; 125 g ai/ha, preemergence): 100
- Plant response rating, Goosegrass (goosegrass; Preemergence, 31 g ai/ha): 75
- Plant response rating, Johnsongrass (johnsongrass; 16 g ai/ha, preemergence): 40
- Johnsongrass plant response rating (johnsongrass; 62 g ai/ha, Preemergence): 100
- Johnsongrass plant response rating (johnsongrass; 125 g ai/ha, preemergence): 100
- Plant response rating, Johnsongrass (johnsongrass; Preemergence, 31 g ai/ha): 50

SMILES: CCn1nc(C(F)(F)F)c(CS(=O)(=O)c2cccc[n+]2[O-])c1OCC(F)(F)F [Compound 63]
- Ryegrass, Italian plant response rating (Italian ryegrass; [1]): 50
- Ryegrass, Italian plant response rating (Italian ryegrass; [5]): 60
- Plant response rating, Ryegrass, Italian (Italian ryegrass; Preemergence): 0
- Ryegrass, Italian plant response rating (Italian ryegrass; [6]): 100
- Plant response rating, Purple Nutsedge (purple nutsedge; 16 g ai/ha, preemergence): 0
- Purple Nutsedge plant response rating (purple nutsedge; 62 g ai/ha, Preemergence): 65
- Purple Nutsedge plant response rating (purple nutsedge; 125 g ai/ha, preemergence): 75
- Plant response rating, Purple Nutsedge (purple nutsedge; Preemergence, 31 g ai/ha): 15
- Plant response rating, Signalgrass (broadleaf signalgrass; 16 g ai/ha, preemergence): 15
- Signalgrass plant response rating (broadleaf signalgrass; preemergence): 100
- Plant response rating, Signalgrass (broadleaf signalgrass; Preemergence, 62 g ai/ha): 100
- Plant response rating, Signalgrass (broadleaf signalgrass; Preemergence, 31 g ai/ha): 40
- Plant response rating, Dallisgrass (dallisgrass; 16 g ai/ha, preemergence): 15
- Dallisgrass plant response rating (dallisgrass; 62 g ai/ha, Preemergence): 80
- Dallisgrass plant response rating (dallisgrass; 125 g ai/ha, preemergence): 100
- Plant response rating, Dallisgrass (dallisgrass; Preemergence, 31 g ai/ha): 50
- Foxtail, Green plant response rating (green foxtail; [1]): 100
- Foxtail, Green plant response rating (green foxtail; [5]): 100
- Plant response rating, Foxtail, Green (green foxtail; Preemergence): 95
- Foxtail, Green plant response rating (green foxtail; [6]): 100
- Plant response rating, Itchgrass (itchgrass; 16 g ai/ha, preemergence): 10
- Itchgrass plant response rating (itchgrass; 62 g ai/ha, Preemergence): 80
- Itchgrass plant response rating (itchgrass; 125 g ai/ha, preemergence): 90
- Plant response rating, Itchgrass (itchgrass; Preemergence, 31 g ai/ha): 50
- Plant response rating, Groundsel (common groundsel; 16 g ai/ha, preemergence): 0
- Groundsel plant response rating (common groundsel; 62 g ai/ha, Preemergence): 0
- Groundsel plant response rating (common groundsel; 125 g ai/ha, preemergence): 0
- Plant response rating, Groundsel (common groundsel; Preemergence, 31 g ai/ha): 0
- Plant response rating, Barnyardgrass (barnyardgrass; Postemergence, 125 g ai/ha): 90
- Barnyardgrass plant response rating (barnyardgrass; [3]): 90
- Barnyardgrass plant response rating (barnyardgrass; [4]): 90
- Plant response rating, Barnyardgrass (barnyardgrass; Preemergence, 500 g ai/ha): 100
- Plant response rating, Dayflower (Virginia dayflower; 16 g ai/ha, preemergence): 0
- Dayflower plant response rating (Virginia dayflower; 62 g ai/ha, Preemergence): 100
- Dayflower plant response rating (Virginia dayflower; 125 g ai/ha, preemergence): 100
- Plant response rating, Dayflower (Virginia dayflower; Preemergence, 31 g ai/ha): 100
- Plant response rating, Kochia (kochia; 16 g ai/ha, preemergence): 0
- Kochia plant response rating (kochia; 62 g ai/ha, Preemergence): 0
- Kochia plant response rating (kochia; 125 g ai/ha, preemergence): 100
- Plant response rating, Kochia (kochia; Preemergence, 31 g ai/ha): 0
- Plant response rating, Velvetleaf (velvetleaf; Postemergence, 125 g ai/ha): 60
- Velvetleaf plant response rating (velvetleaf; [3]): 80
- Velvetleaf plant response rating (velvetleaf; [4]): 60
- Plant response rating, Velvetleaf (velvetleaf; Preemergence, 500 g ai/ha): 100
- Plant response rating, Goosegrass (goosegrass; 16 g ai/ha, preemergence): 80
- Goosegrass plant response rating (goosegrass; 62 g ai/ha, Preemergence): 98
- Goosegrass plant response rating (goosegrass; 125 g ai/ha, preemergence): 100
- Plant response rating, Goosegrass (goosegrass; Preemergence, 31 g ai/ha): 90
- Plant response rating, Johnsongrass (johnsongrass; 16 g ai/ha, preemergence): 35
- Johnsongrass plant response rating (johnsongrass; 62 g ai/ha, Preemergence): 100
- Johnsongrass plant response rating (johnsongrass; 125 g ai/ha, preemergence): 100
- Plant response rating, Johnsongrass (johnsongrass; Preemergence, 31 g ai/ha): 80

— patent US20100298141A1, “SUBSTITUTED PYRIDINE N-OXIDE HERBICIDES” (E. I. DU PONT DE NEMOURS AND COMPANY, priority 2007, published 2010)
